In ChEMBL document CHEMBL1201862, “PubChem BioAssay data set” (2004):
The source made the active and inactive calls.

What was measured:
[1] = target: Matrix metalloproteinase-14 (Homo sapiens, UniProt P50281); assay: Dose Response confirmation of uHTS hits for a small molecule inhibitors of MT1-MMP activation in a fluorescence assay set 1.; assay type: functional
[2] = activation of miR-122 Renilla sensor silencing – cell-based, Huh7 psiCHECK-miR122, Renilla luciferase, cherry-picked, dose response (AID 651956); assay type: functional;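 note: huh7 hepatoma cells stably carrying a psiCHECK-2 miR-122 sensor plasmid; renilla luciferase signal reporting endogenous miR-122 activity after 48 h compound exposure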
[3] = target: T1, Scavenger receptor class B member 1 (Mus musculus, UniProt Q61009); assay: mouse SR-BI DiI-HDL transfer blockers – ldlA[mSR-BI] CHO cells, fluorescence plate reader, dry powder, set 9, dose response (AID 623880); assay type: functional, cell-based
T1 sequence (Q61009 whole entry): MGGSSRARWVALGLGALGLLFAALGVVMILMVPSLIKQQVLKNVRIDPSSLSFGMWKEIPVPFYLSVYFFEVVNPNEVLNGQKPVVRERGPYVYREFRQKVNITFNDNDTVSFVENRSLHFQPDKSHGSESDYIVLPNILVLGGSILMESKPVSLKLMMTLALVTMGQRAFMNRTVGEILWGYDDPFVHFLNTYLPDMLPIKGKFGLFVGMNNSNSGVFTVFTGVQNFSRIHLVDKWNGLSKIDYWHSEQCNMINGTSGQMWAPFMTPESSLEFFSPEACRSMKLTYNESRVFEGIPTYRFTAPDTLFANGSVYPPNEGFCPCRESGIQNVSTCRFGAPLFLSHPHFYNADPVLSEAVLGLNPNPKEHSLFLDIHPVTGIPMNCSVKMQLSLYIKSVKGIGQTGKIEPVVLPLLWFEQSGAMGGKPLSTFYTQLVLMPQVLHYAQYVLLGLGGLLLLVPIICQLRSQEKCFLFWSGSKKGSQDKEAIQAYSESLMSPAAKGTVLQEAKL

[4] = target: T1, Scavenger receptor class B member 1; assay: blockers of DiI-HDL lipid transfer via SR-BI – cell-based, ldlA[mSR-BI] CHO, DiI fluorescence, dry powder, set 10, dose response (AID 624029); assay type: functional
[5] = microbe, parasite or virus in culture; assay type: functional; settings: Mycobacterium tuberculosis
[6] = target: T2, Apoptotic protease-activating factor 1 (Homo sapiens, UniProt O14727); assay: SAR analysis of small molecule Activators of Apaf-1 in a Fluorescent assay.; assay type: functional; settings: read-out: EC50_Mean;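 note: caspase-3 cleavage of fluorogenic Rh110 DEVD substrate downstream of apoptosome activation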
T2 sequence (O14727 whole entry): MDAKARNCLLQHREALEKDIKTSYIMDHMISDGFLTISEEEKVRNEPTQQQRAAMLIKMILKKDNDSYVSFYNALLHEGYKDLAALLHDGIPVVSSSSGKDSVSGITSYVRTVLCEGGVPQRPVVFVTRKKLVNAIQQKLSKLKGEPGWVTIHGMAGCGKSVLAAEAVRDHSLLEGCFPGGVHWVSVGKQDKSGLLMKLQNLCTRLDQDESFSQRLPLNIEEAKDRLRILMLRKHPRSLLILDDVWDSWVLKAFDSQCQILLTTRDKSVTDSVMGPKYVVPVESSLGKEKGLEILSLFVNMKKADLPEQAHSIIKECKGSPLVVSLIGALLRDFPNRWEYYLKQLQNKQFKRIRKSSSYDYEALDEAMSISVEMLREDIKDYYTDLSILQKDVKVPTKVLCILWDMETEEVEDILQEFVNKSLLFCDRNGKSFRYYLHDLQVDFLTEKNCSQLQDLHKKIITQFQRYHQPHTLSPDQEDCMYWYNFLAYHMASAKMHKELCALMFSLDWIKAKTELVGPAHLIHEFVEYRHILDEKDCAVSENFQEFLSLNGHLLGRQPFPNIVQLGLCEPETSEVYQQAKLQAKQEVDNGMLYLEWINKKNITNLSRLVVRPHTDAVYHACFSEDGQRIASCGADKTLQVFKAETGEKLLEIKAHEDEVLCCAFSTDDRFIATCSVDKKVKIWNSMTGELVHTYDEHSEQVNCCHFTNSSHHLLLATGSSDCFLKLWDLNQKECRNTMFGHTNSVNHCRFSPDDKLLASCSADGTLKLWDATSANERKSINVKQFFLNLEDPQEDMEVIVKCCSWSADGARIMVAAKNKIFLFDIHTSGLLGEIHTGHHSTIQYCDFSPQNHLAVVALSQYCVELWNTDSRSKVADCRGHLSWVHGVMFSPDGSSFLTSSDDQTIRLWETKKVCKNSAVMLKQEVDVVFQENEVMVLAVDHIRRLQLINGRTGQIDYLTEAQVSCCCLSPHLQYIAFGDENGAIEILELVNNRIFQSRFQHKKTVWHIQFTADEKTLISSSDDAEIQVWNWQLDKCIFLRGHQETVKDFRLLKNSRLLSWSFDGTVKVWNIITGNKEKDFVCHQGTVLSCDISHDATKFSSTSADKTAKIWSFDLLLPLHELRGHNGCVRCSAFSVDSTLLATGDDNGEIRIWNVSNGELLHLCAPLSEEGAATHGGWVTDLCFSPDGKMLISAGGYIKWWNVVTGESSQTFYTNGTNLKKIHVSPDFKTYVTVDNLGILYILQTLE

[7] = target: 5-hydroxytryptamine receptor 2A (Mus musculus, UniProt P35363); assay type: functional, cell-based;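 note: CHO-K1 cells with tagged receptor and beta-arrestin; agonist potency measured as compound-induced activation of the receptor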
[8] = target: Mu-type opioid receptor (Homo sapiens, UniProt P35372); assay type: functional, cell-based;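 note: U2OS cells with beta-arrestin recruitment to OPRM1 by beta-gal complementation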
[9] = target: DNA (cytosine-5)-methyltransferase 1 (Homo sapiens, UniProt P26358); assay: inhibition of DNA methylation by DNMT1 – biochemical, fluorescent molecular beacon, confirmation (AID 602386); assay type: functional
[10] = target: Induced myeloid leukemia cell differentiation protein Mcl-1 (Homo sapiens, UniProt Q07820); assay type: functional
[11] = target: Ephrin type-A receptor 4 (Mus musculus, UniProt Q03137); assay: EphA4 ligand-binding antagonists – biochemical, colorimetric, mouse EphA4, primary screen (AID 689); assay type: functional
[12] = target: T3, Rac GTPase-activating protein 1 (Homo sapiens, UniProt Q9H0H5); assay: blockers of MgcRacGAP-driven Rac1 GTP hydrolysis – biochemical, ADP Hunter fluorescence, primary and confirmatory, confirmation (AID 624330); assay type: functional
T3 sequence (Q9H0H5 whole entry): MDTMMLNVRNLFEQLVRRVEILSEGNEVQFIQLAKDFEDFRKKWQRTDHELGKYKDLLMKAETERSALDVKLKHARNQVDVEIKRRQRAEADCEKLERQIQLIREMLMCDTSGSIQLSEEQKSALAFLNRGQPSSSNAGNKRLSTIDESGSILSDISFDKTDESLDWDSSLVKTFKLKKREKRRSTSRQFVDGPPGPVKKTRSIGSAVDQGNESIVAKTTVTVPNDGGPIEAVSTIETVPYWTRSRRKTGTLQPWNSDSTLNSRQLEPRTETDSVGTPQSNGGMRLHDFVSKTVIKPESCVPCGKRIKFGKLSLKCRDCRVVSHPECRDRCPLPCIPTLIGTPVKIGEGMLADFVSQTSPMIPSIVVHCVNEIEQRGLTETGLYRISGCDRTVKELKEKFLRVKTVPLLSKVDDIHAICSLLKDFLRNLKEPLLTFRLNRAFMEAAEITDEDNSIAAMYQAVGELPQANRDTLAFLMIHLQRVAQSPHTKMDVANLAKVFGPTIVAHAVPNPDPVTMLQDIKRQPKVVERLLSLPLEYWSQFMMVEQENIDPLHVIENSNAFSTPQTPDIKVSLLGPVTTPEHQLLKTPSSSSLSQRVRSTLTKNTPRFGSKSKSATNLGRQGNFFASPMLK

[13] = target: Eukaryotic translation initiation factor 4E (Mus musculus, UniProt P63073); assay: blockers of eIF4G binding by eIF4E – biochemical, TR-FRET, dose response (AID 855); assay type: functional;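 note: potency for disrupting eIF4E binding to eIF4GI seen as loss of FRET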
[14] = bead-based luminescence quenchers, dual-tagged ARNT – biochemical, AlphaScreen, cherry-pick, artefact control for ARNT-TACC3 interaction inhibitor project, dose response (AID 651705); assay type: functional;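 note: AlphaScreen bead proximity signal that flags compounds interfering with the detection technology; potency reflects signal decrease which marks the compound as an assay artifact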
[15] = target: T4, Protein disulfide-isomerase (Homo sapiens, UniProt P07237); assay: inhibition of PDI-mediated insulin reduction – biochemical, turbidity, absorbance, cherry-picked samples, set 2, dose response (AID 624274); assay type: functional
[16] = target: T4, Protein disulfide-isomerase; assay: inhibition of PDI-driven insulin aggregation – biochemical, turbidity, absorbance, cherry-picked samples, dose response (AID 602350); assay type: functional
[17] = target: DNA repair and recombination protein RAD54-like (Homo sapiens, UniProt Q92698); assay: RAD54 Holliday junction migration blockers – biochemical, fluorescence, cherry-picked samples, dose series, confirmation (AID 651657); assay type: functional
[18] = target: T5, DNA repair protein RAD52 homolog (Homo sapiens, UniProt P43351); assay type: functional, biochemical
T5 sequence (P43351 whole entry): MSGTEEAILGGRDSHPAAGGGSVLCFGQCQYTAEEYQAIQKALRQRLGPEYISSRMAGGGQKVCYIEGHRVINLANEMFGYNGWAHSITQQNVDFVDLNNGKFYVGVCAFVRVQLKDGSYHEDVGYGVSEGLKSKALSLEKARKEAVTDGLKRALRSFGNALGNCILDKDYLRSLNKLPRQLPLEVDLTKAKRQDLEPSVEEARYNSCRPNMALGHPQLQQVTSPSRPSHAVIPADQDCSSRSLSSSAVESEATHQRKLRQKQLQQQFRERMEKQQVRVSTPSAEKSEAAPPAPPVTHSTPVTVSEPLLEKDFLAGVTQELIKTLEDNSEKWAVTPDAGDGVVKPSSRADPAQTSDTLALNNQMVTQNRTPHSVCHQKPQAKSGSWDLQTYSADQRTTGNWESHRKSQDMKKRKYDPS

[19] = acridine orange displacement from DNA – biochemical, fluorescence polarization, cherry-pick, artefact control for RAD54 inhibitor project, dose response (AID 651673); assay type: functional
[20] = target: ADP-ribosylation factor GTPase-activating protein 1 (Rattus norvegicus, UniProt Q62848); assay: Fluorescence polarization-based biochemical high throughput dose response screening assay to identify inhibitors of ADP-ribosylation factor GTPase activating protein 1 (ARFGAP1).; assay type: functional
[21] = target: Arf-GAP with SH3 domain, ANK repeat and PH domain-containing protein 1 (Homo sapiens, UniProt Q9ULH1); assay type: functional;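 note: biochemical fluorescence polarization dose–response screen measuring inhibition of ASAP1; ASAP1 GAP domain stimulating GTP hydrolysis by truncated human ARF1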
[22] = target: T6, Calpain-2 catalytic subunit (Sus scrofa, UniProt P43367); assay: m-calpain protease blockers, concentration series – biochemical, fluorogenic peptide substrate, dose response (AID 1420); assay type: functional
T6 sequence (P43367 whole entry): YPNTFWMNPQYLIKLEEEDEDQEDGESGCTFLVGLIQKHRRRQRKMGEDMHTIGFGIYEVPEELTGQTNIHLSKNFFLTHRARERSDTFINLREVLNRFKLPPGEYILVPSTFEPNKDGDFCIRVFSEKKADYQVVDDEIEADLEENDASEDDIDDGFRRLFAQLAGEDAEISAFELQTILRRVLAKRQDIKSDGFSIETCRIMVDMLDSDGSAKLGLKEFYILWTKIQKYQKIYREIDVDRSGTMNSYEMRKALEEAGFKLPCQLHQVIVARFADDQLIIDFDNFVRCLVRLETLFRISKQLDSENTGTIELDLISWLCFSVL

[23] = target: Mitochondrial peptide methionine sulfoxide reductase (Bos taurus, UniProt P54149); assay type: functional;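 note: absorbance read-out, biochemical high-throughput dose-response screen for MsrA inhibitors, confirmatory; recombinant bovine MsrA coupled to E. coli TrxB with NADPH and selenocystamine; potency is for inhibitors of MsrA activity on DMSO substrate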
[24] = reduced cellular PGC1a acetyl-lysine signal – cell-based, cherry-picked samples, dose response (AID 720514); assay type: functional;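 note: potency may reflect raised or lowered acetylation signal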
[25] = tested on: HEK293; assay: EBV LMP1 TES2 canonical NF-kB signalling blockers – cell-based, HEK293, luciferase, cherry-pick, dose response (AID 588343); assay type: functional; settings: Homo sapiens
[26] = target: T7, Interleukin-8 (Homo sapiens, UniProt P10145); assay: Dose Response confirmation of uHTS small molecule hits for cystic fibrosis induced NFkb Inhibitors in a PAF-induced IL8 counterscreen.; assay type: functional; settings: read-out: IC50_Mean
T7 sequence (P10145 whole entry): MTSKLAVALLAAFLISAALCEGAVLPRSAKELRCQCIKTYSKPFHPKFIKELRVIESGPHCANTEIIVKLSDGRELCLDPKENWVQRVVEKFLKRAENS

[27] = target: T7, Interleukin-8; assay: Dose Response confirmation of uHTS small molecule hits for cystic fibrosis induced NFkb Inhibitors in a TNFa-induced IL8 counterscreen.; assay type: functional; settings: read-out: IC50_Mean

T4 sequence (P07237 whole entry): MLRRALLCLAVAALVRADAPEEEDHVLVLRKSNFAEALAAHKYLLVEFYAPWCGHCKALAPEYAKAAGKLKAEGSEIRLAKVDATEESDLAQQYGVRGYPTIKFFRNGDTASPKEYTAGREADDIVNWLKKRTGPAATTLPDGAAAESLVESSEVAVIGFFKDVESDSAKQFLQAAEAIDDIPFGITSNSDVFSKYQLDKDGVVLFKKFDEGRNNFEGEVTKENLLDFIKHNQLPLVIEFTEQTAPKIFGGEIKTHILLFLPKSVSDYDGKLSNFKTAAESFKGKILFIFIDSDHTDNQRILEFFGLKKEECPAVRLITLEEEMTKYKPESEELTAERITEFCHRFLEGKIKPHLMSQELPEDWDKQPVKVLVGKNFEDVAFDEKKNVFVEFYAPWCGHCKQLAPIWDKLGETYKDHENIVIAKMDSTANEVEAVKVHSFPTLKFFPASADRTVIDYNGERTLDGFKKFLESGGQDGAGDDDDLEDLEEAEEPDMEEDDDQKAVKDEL
Eukaryotic translation initiation factor 4E, sequence (P63073 whole entry): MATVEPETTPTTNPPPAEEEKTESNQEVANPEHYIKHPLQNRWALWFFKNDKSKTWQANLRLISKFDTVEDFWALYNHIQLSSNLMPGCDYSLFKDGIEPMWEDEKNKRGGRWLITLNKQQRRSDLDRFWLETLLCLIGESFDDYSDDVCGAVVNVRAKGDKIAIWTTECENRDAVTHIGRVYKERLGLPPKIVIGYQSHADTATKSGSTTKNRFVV
Ephrin type-A receptor 4, sequence (Q03137 whole entry): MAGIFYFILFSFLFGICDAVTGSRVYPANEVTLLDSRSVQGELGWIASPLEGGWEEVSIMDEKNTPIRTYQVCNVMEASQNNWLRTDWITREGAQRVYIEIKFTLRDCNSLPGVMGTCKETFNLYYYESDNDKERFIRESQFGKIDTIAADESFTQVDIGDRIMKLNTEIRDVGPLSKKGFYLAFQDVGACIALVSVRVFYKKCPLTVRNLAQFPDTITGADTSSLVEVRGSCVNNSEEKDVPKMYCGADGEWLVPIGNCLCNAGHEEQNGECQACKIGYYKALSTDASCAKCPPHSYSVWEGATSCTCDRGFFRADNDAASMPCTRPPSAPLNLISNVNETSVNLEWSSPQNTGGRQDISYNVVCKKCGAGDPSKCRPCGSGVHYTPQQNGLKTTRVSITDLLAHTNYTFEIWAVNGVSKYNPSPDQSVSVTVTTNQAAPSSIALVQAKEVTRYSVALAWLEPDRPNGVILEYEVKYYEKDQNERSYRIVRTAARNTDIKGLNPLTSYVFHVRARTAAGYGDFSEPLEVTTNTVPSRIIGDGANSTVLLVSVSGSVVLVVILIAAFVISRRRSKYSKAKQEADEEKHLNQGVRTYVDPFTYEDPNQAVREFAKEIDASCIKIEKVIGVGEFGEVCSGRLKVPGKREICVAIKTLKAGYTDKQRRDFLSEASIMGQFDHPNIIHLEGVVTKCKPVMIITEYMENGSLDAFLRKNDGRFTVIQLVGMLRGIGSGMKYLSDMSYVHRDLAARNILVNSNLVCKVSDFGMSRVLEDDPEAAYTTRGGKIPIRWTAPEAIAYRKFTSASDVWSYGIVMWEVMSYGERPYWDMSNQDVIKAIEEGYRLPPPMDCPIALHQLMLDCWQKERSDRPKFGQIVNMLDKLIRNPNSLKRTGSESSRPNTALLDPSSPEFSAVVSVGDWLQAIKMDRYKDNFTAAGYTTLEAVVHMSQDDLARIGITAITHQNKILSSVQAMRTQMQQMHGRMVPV
ADP-ribosylation factor GTPase-activating protein 1, sequence (Q62848 whole entry, the tested form may be a part): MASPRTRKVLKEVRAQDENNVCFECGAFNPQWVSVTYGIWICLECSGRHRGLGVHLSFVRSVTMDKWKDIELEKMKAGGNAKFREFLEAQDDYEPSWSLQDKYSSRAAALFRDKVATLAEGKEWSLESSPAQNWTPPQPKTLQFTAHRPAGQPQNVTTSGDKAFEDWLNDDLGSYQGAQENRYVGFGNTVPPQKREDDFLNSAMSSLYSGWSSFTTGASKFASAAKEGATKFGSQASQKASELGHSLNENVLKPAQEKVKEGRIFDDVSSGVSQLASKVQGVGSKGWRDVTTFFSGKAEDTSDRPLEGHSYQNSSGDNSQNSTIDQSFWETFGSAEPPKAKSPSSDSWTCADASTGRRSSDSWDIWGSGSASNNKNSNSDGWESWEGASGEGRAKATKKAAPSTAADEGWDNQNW
Mitochondrial peptide methionine sulfoxide reductase, sequence (P54149 whole entry): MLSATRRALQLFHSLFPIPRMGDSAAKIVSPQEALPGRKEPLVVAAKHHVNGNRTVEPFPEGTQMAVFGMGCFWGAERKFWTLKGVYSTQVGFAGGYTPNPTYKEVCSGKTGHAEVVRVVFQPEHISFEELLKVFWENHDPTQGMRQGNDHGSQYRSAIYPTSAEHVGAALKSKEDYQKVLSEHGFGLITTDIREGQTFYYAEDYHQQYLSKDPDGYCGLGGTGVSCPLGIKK
Arf-GAP with SH3 domain, ANK repeat and PH domain-containing protein 1, sequence (Q9ULH1 whole entry, the tested form may be a part): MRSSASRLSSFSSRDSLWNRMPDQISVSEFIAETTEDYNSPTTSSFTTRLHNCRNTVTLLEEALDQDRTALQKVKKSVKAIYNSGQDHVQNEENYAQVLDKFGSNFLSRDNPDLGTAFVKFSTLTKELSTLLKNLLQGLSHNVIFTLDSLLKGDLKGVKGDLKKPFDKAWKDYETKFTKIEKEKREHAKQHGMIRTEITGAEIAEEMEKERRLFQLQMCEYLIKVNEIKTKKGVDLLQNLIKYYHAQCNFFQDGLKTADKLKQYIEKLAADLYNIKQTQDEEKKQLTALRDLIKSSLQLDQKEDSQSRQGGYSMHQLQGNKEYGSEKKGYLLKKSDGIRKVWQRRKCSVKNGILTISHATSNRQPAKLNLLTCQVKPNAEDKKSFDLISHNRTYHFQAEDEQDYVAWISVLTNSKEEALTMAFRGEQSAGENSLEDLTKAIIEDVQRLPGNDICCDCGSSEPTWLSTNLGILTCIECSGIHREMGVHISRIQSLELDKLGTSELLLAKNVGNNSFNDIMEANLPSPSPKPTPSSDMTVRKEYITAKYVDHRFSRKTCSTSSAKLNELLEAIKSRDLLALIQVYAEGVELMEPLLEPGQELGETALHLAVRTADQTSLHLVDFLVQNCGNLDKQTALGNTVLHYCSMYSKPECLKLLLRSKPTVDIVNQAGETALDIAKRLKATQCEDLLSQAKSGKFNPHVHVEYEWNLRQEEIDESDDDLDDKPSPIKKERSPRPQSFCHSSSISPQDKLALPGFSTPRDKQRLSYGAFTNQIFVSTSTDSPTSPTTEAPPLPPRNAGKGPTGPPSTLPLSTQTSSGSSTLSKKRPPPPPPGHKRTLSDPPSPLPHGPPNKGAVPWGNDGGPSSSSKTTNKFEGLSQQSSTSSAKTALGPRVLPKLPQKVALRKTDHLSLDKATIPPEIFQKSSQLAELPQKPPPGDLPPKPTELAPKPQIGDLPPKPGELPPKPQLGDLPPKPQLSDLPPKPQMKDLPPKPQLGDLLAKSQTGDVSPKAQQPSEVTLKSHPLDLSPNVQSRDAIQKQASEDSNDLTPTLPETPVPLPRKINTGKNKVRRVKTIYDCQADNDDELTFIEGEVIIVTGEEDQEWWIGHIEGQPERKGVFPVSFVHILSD
Mu-type opioid receptor, sequence (P35372 whole entry): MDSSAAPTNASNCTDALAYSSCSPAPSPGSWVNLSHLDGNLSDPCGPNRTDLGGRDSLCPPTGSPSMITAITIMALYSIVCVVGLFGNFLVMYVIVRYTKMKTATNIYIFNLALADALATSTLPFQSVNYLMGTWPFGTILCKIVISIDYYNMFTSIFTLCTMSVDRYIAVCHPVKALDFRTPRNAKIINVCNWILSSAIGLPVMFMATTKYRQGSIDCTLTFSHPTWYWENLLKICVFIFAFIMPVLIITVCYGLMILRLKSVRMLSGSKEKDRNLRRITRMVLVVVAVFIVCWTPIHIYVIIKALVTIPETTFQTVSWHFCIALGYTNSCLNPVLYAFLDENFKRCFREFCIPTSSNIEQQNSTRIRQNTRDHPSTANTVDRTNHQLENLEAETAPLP
DNA repair and recombination protein RAD54-like, sequence (Q92698 whole entry): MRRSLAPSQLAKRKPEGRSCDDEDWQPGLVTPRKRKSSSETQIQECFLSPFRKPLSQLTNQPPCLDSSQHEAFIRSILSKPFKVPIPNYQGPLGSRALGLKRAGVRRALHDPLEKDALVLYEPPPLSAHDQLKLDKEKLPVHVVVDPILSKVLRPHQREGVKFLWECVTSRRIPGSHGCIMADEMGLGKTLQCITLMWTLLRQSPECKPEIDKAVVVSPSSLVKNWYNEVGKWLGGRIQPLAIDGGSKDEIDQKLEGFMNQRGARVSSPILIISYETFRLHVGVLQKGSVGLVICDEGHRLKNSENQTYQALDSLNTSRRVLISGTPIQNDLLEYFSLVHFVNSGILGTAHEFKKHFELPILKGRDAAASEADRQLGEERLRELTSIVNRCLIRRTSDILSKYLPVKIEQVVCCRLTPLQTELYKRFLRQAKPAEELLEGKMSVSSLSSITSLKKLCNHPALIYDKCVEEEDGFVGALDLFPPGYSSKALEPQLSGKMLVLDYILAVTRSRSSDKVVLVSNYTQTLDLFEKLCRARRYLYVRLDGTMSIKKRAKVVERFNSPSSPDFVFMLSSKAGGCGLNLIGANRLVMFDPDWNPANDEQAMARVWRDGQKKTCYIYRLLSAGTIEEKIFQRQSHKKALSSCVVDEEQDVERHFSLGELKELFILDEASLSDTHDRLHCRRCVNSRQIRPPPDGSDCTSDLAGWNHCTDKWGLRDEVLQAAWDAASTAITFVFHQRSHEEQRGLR
Induced myeloid leukemia cell differentiation protein Mcl-1, sequence (Q07820 whole entry): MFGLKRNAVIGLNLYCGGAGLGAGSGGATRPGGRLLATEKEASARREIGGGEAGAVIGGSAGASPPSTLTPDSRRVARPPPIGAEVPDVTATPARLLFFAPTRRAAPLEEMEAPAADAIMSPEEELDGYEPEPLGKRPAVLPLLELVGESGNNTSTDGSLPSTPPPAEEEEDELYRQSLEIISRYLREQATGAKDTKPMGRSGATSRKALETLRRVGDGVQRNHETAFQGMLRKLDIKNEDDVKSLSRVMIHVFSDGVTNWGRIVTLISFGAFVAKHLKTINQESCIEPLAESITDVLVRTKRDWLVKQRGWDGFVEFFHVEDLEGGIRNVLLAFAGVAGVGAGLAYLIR

SMILES: Cc1ccc(S(=O)(=O)/N=C2\C=C(NS(=O)(=O)c3ccccc3)C(=O)c3ccccc32)c(C)c1
- IC50 [1]: 14 µM (active)

SMILES: Cc1cc(C(C)(C)C)cc(S(=O)(=O)NCCc2ccncc2)c1C
- AC50 [2]: 0.598 µM (active)

SMILES: CCOc1cc2c3c(c1)C1(C(=O)N3C(C)(C)CC2C)C(C#N)=C(N)N2C(=C1C#N)Nc1ccccc12 (configuration not stated)
- AC50 [3]: 10 µM (active)
- AC50 [4]: 2.23 µM (active)
- CC50 [5]: > 40 µM (active)

SMILES: Cc1ccc(N2C(=O)[C@@H]3C(c4ccc(F)cc4)=NO[C@@H]3C2=O)cc1
- EC50 [6]: > 100 µM (inactive)

SMILES: CCC(=O)c1ccc(OCC(O)CN2CCN(c3ccccn3)CC2)cc1 (configuration not stated)
- EC50 [7]: 0.306 µM (active)
- EC50 [8]: 92.5 µM (inactive)

SMILES: C=CCOC(=O)c1cc(-c2ccc(/C=C3\C(=O)NC(=O)C(C#N)=C3C)o2)ccc1Cl
- IC50 [9]: 5 µM (active)
- IC50 [10]: 1.2 µM (active)
- IC50 [11]: 1.45 µM (active)
- IC50 [12]: 229 µM (active)
- IC50 [13]: 12.8 µM (active)

SMILES: COCCOC(=O)c1c(N)n(Cc2ccco2)c2nc3ccccc3nc12
- AC50 [14]: 130 µM (active)

SMILES: O=C(Nc1ccccc1N1CCCC1)c1cc(Cl)ccc1Cl
- AC50 [15]: 0.009 µM (active)
- AC50 [16]: < 0.009 µM (active)

SMILES: CCOC(=O)c1cnc2c(ccc3ccccc32)c1NCCN(C)C
- AC50 [17]: 9.73 µM (active)
- AC50 [18]: 6.71 µM (active)
- AC50 [19]: 55.9 µM (active)

SMILES: COc1cc(/C=N\NC(=O)c2ccc(C)nc2)ccc1OC(=O)c1ccc2c(c1)OCO2
- IC50 [20]: 21 µM (inactive)
- IC50 [21]: 24.8 µM (inactive)

SMILES: CCOC(=O)C/C(C)=N\Nc1ccc([N+](=O)[O-])cc1[N+](=O)[O-]
- IC50 [22]: 23 µM (not active)
- IC50 [23]: 155 µM (inactive)

SMILES: CCCN(CC)c1[nH]cnc2nncc1-2
- AC50 [24]: 3.26 µM (active)
- AC50 [25]: 9.96 µM (active)
- IC50 [26]: 9.12 µM (active)
- IC50 [27]: 42.3 µM (inactive)
